In this test the test system is BT20 Cell. Put plainly: Cancer Cell Lysate Total L-Glutamate Assay. It is filed as cell-based. The settings on record: Homo sapiens, BT-20, 2 h, total L-glutamate in cell lysate, BT20 cells, 2 hour incubation with test compound. The method, then:
Cancer Cell Lysate Total L-Glutamate Assay
Cancer cell lines (BT20, HCT116, SKOV3, HCC70, SUM149, MDA-MB-231, etc.) were plated in 96 well plates and were used for the total L-glutamate assay when the monolayer was ca. 80% confluent. The media was changed and fresh media containing L-glutamine was added to the 96 well plates, just before incubation of the cells with test compound. The test compound was diluted in 100% DMSO using a two-fold or three-fold serial dilution. Small volumes of the dilutions of test compound were added to the 96 well plates so the final DMSO concentration was 0.5% v/v in the cell culture medium. The cells were incubated at 37° C., 5% CO2, and 95% air for 2 hours. Following the 2 hour incubation, the cells were washed with water 2 times. After the last water wash, 100 μL of 50 mM Tris-HCl pH 7.4 and 0.01% Tween-20 was added to each well and the plate was frozen at −80° C. The 96 well plate was frozen and thawed a total of 3 times and then sonicated for 5 min at 4° C. in a bath sonicator. Following sonication, the 96 well plate was centrifuged for 5 min at 1000 rpm and 10 μL of the supernatant was transferred to a 384 well assay plate.
Total L-glutamate (L-glutamic acid) in the cell lysis supernatant was detected using glutamate oxidase, horseradish peroxidase and Amplex Red reagent (10-acetyl-3,7-dihydroxy phenoxazine, Invitrogen # A22177). In this assay, L-glutamate was oxidized by glutamate oxidase to produce alpha-ketoglutarate (2-oxopentane dioic acid), NH3 and H202. The H2O2 (hydrogen peroxide) was used by horseradish peroxidase (HRP) to oxidize the Amplex Red Reagent to resorufin which is a fluorescent molecule. When resorufin is excited with light with a wavelength 530-560 nm, it emits light at approximately 585 nm. For detection of total L-glutamate in 10 μL of lysate, 15 μL of an enzyme mixture was added to each well of the 384 well assay plate. The enzyme mixture consisted of 50 mM Tris-HCl pH 7.4, 0.01% Tween-20, 50 μM Amplex Red reagent (final concentration), 0.04 U/mL L-glutamate oxidase (final concentration), and 0.125 U/mL HRP (final concentration). The 384 well assay plate was incubated at room temperature for 5 min and then the fluorescence intensity of each well was measured at 585 nm using a 530-560 nm excitation wavelength in a plate based fluorimeter such as an LJL Analyst or a Tecan Infinite plate reader. Standard curves were constructed for this assay using dilutions of a L-glutamate standard. IC50 were calculated by plotting the relative fluorescent units vs log of the inhibitor concentration and fitting the data to the four parameter logistic equation.
Reference: Chapman J. and Zhou M. (1999) Microplate-based fluorometric methods for the enzymatic determination of I-glutamate: application in measuring I-glutamate in food samples. Analytica Chim Acta 402:47-52.

The term IC50 denotes the concentration needed to halve the response being measured. Lower therefore signals higher potency.

In turn, `CC(=O)Nc1nnc([C@@H]2CC[C@H](Cc3nnc(NC(=O)Cc4ccccn4)s3)C2)s1` (racemic) [Example 151, (rac)-N-[5-({(cis)-3-[5-(acetylamino)-1,3,4-thiadiazol-2-yl]cyclopentyl}methyl)-1,3,4-thiadiazol-2-yl]-2-(pyridin-2-yl)acetamide] returned an IC50 of 4.6 nM.

As to `O=C(Cc1ccccn1)Nc1nnc(C[C@H]2CC[C@@H](c3nnc(NC(=O)Cc4ccccn4)s3)C2)s1` (racemic) [Example 152, (rac)-2-(pyridin-2-yl)-N-(5-{[(cis)-3-{5-[(pyridin-2-ylacetyl)amino]-1,3,4-thiadiazol-2-yl}cyclopentyl]methyl}-1,3,4-thiadiazol-2-yl)acetamide], inhibition was half-maximal at 2.8 nM (IC50).

Molecule `Cn1cnc(CC(=O)Nc2nnc([C@H]3CC[C@@H](Cc4ccc(NC(=O)Cc5ccccn5)nn4)C3)s2)c1` (relative stereo) [Example 128, 2-(1-methyl-1H-imidazol-4-yl)-N-{5-[(cis)-3-({6-[(pyridin-2-ylacetyl)amino]pyridazin-3-yl}methyl)cyclopentyl]-1,3,4-thiadiazol-2-yl}acetamide] displayed an IC50 of 2 nM.

The molecule `O=C(Cc1ccccn1)Nc1nnc(C[C@@H]2CC[C@H](c3nnc(NC(=O)Cc4ccccn4)s3)C2)s1` (single isomer, unassigned) [Example 2] registered a concentration for half-maximal inhibition (IC50) of 1 nM.

With `O=C(Cc1ccccn1)Nc1nnc(C[C@H]2CC[C@@H](c3nnc(NC(=O)Cc4ccccn4)s3)C2)s1` (single isomer, unassigned) [Example 4], it took 21.6 nM to reach half-maximal inhibition (IC50).

With `CC(=O)Nc1nnc(C[C@@H]2CC[C@H](c3nnc(NC(C)=O)s3)C2)s1` (single isomer, unassigned) [Example 5], it took 104 nM to reach half-maximal inhibition (IC50).

As to `CC(=O)Nc1nnc(C[C@H]2CC[C@@H](c3nnc(NC(C)=O)s3)C2)s1` (single isomer, unassigned) [Example 7], the concentration for half-maximal inhibition (IC50) was found to be 3360 nM.

Molecule `O=C(Cc1ccccc1)Nc1nnc(C[C@@H]2CC[C@H](c3nnc(NC(=O)Cc4ccccc4)s3)C2)s1` (single isomer, unassigned) [Example 8] registered a half-inhibitory concentration (IC50) of 1.4 nM.

`O=C(Cc1ccccc1)Nc1nnc(C[C@H]2CC[C@@H](c3nnc(NC(=O)Cc4ccccc4)s3)C2)s1` (single isomer, unassigned) [Example 10] gave a half-maximal inhibitory concentration (IC50) of 33.3 nM.

`CC(=O)Nc1nnc(C2CC[C@H](Cc3nnc(NC(=O)c4ccccc4)s3)C2)s1` (single isomer, unassigned) [Example 12, N-[5-({(cis)-3-[5-(acetylamino)-1,3,4-thiadiazol-2-yl]cyclopentyl}methyl)-1,3,4-thiadiazol-2-yl]benzamide] had an IC50 above 50000 nM.

Turning to `CC(=O)Nc1nnc(C2CC[C@@H](Cc3nnc(NC(=O)c4ccccc4)s3)C2)s1` (single isomer, unassigned) [Example 13, N-[5-({(cis)-3-[5-(acetylamino)-1,3,4-thiadiazol-2-yl]cyclopentyl}methyl)-1,3,4-thiadiazol-2-yl]benzamide], the IC50 was 23.8 nM.

The molecule `CC(=O)Nc1nnc([C@H]2CC[C@@H](Cc3nnc(NC(=O)Cc4ccccc4)s3)C2)s1` (single isomer, unassigned) [Example 14] gave an IC50 of 3.1 nM.

Molecule `CC(=O)Nc1nnc(C2CC[C@H](Cc3nnc(NC(=O)Cc4ccccc4)s3)C2)s1` (single isomer, unassigned) [Example 16, N-[5-({(cis)-3-[5-(acetylamino)-1,3,4-thiadiazol-2-yl]cyclopentyl}methyl)-1,3,4-thiadiazol-2-yl]-2-phenylacetamide] yielded an IC50 of 399 nM.

As for `CC(=O)Nc1nnc([C@H]2CC[C@@H](Cc3nnc(NC(=O)Cc4ccccn4)s3)C2)s1` (single isomer, unassigned) [Example 17, N-[5-({(cis)-3-[5-(acetylamino)-1,3,4-thiadiazol-2-yl]cyclopentyl}methyl)-1,3,4-thiadiazol-2-yl]-2-(pyridin-2-yl)acetamide], half-maximal inhibition (IC50) was put at 12.2 nM.

The record behind these values is US10676471B2, “Cycloalkyl-linked diheterocycle derivatives” (Pfizer Inc., priority 2014, dated 2020).
